Data from US11525106B2, “Tetraacetyldiamine and triacetyldiamine derivatives useful as bleach activators” (DOW GLOBAL TECHNOLOGIES LLC, priority 2018, dated 2022).

Key:
[1] = bleaching test with food dye and hydrogen peroxide; settings: FIG. 2; for bleaching activation effect: food dye (blue) with H2O2, room temperature; for time after which the blue color was bleached: food dye in Tris buffer pH 8.0 with H2O2 (30%) 1:1, 10 mg compound per mL
Method: (§1) To study the hydrolytic degradation, 1 and 2 were dissolved in Tris buffer (pH 8.0, 0.1 M):acetonitrile (can) mixture (3:1, v/v) at 50 μg/mL. The perhydrolytic degradation was evaluated at similar conditions in the presence of sodium perborate (10 equiv.). Commercially available bleach activator, tetraacetylethylenediamine (TAED), was used as a control. The mixture was incubated at room temperature (20° C.) for 20 days. At different time intervals, an aliquot of the solution was taken out and analyzed by HPLC. The concentration of 1 and 2 was quantified by UV-vis absorption at Δmax=218 nm through standard curve. For the bleaching test, 1, 2, TAED, and other control molecules (20 mg) were treated with commercially available food dyes (100× dilution, 1 mL) and hydrogen peroxide (H2O2, 30%, 1 mL). The mixtures were incubated at room temperature (20° C.) and checked at different time intervals to monitor the bleaching of the dyes.
The compounds of the invention were subjected to a bleaching test. The food dye was purchased from Adams Extract, and diluted 500 times with Tris buffer (pH 8.0, 0.1 M) before use. The diluted food dye was mixed with H2O2 (30%) in 1:1 ratio (v/v). For every 10 mg of TAED/TA(Me)ED/TriA(Me)ED, 1 mL of food dye/H2O2 mixture was added. The widely used bleach activator TAED actively reacted with H2O2, and the blue color disappeared after about 24 hours.

[2] = hydrolytic degradation in buffer, followed by HPLC; format: physicochemical; settings: for kH (hydrolysis rate constant) / half-life at 50 μg/mL: Tris buffer pH 8.0 (0.1 M):acetonitrile 3:1, 50 μg/mL, 20° C.; for half-life at 50 μg/mL: Tris buffer:acetonitrile (3:1, v/v), read-out: t1/2,H (hydrolysis half-life) (converted); for half-life relative to half-life of TAED: pH 8.0; for hydrolytic degradation compared with TAED: pH 8.0, FIG. 1A
Method: as §1

[3] = perhydrolytic degradation in the presence of sodium perborate (10 equiv.), followed by HPLC; format: physicochemical; settings: sodium perborate/persalts 10 equiv.
Method: as §1

[4] = hydrolytic degradation in buffer, followed by HPLC; format: physicochemical; settings: pH 9.0
[5] = solubility in aqueous environment; format: physicochemical; settings: without organic solvent

CC(=O)NCC(C)NC(C)=O (stereo not drawn) [Compound 3, N,N′-(propane-1,2-diyl)diacetamide, reference compound]
bleaching activation effect [1]: did not exhibit any bleaching activation effect

CC(=O)NCCNC(C)=O [DAED, diacetylethylenediamine, reference compound]
bleaching activation effect [1]: did not exhibit any bleaching activation effect

CC(=O)N(CC(C)N(C(C)=O)C(C)=O)C(C)=O (stereo not drawn) [Compound 1, N,N′-(propane-1,2-diyl)bis(N-acetylacetamide)]
kH (hydrolysis rate constant) [2]: 0.0038 h⁻¹ | half-life at 50 μg/mL [2]: 181 h | half-life relative to half-life of TAED [2]: 1.5 times longer | hydrolytic degradation compared with TAED [2]: slower degradation | hydrolysis compared to TAED ([2]; pH values between about 5 and 9): slower hydrolysis | perhydrolysis rate, comparison among TAED, 1 and 2 [3]: comparable | time after which the blue color was bleached [1]: 24 h | half-life relative to half-life of TAED [4]: 2.6 times longer

CC(=O)N(CCN(C(C)=O)C(C)=O)C(C)=O [TAED, tetraacetylethylenediamine, reference compound]
kH (hydrolysis rate constant) [2]: 0.0091 h⁻¹ | half-life at 50 μg/mL [2]: 76 h | perhydrolysis rate, comparison among TAED, 1 and 2 [3]: comparable | time after which the blue color was bleached [1]: about 24 hours | solubility in water [5]: cannot be easily solubilized in water

CC(=O)NC(C)CN(C(C)=O)C(C)=O (stereo not drawn) [Compound 2, N-(2-acetamidopropyl)-N-acetylacetamide]
kH (hydrolysis rate constant) [2]: 0.0015 h⁻¹ | half-life at 50 μg/mL [2]: 462 h | hydrolysis compared to TAED ([2]; basic pH): even slower hydrolysis | half-life relative to half-life of TAED [2]: 5.7 times longer | hydrolytic degradation compared with TAED [2]: slower degradation | perhydrolysis rate, comparison among TAED, 1 and 2 [3]: comparable | bleaching activation effect [1]: much slower bleaching action | time after which the blue color was bleached [1]: 24 h | half-life relative to half-life of TAED [4]: 5.8 times longer
